Molecules are shown by their SMILES. Active and inactive are the calls of the source.

Data set [1] in a line: Intein inhibitors as potential Tuberculosis drugs, a cytotoxicity screen. [Related pubchem assays (depositor defined):AID2221, AID2223, AID434968, AID435010, AID449749, AID449750, AID489010]. Type of data set: functional.
For the next data set, the target named is T1, Protein RecA (Mycobacterium tuberculosis, UniProt P9WHJ3).
T1 sequence (P9WHJ3 whole entry): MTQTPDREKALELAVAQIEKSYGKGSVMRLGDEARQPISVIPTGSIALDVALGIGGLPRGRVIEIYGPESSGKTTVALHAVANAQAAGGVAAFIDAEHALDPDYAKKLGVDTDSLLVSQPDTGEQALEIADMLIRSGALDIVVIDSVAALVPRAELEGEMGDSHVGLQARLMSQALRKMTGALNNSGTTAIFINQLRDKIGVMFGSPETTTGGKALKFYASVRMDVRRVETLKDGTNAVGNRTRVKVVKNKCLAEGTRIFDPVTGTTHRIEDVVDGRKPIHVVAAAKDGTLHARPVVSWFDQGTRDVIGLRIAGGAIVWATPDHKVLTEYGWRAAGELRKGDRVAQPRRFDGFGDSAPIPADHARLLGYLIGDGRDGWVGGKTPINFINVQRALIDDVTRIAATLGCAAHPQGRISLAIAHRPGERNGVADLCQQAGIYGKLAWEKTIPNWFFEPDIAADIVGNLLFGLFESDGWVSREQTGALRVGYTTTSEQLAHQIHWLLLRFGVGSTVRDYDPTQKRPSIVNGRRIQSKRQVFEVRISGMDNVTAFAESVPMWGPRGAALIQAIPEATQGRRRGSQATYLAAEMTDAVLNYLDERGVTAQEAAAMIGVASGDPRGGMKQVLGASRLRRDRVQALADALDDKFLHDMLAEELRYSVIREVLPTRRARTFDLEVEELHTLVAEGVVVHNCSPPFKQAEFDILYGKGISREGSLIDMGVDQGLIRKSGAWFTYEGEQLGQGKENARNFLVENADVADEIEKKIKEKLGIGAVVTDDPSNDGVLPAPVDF
Kind of data set: Fluorescence Cell-Free Homogeneous Dose Retest to Identify Inhibitors of RecA-Intein Splicing Activity. [Related pubchem assays (depositor defined):AID2097, AID2223, AID489010, AID492950]. Type of data set: functional.

The target in data set [2] is G-protein coupled receptor 55 (Homo sapiens, UniProt Q9Y2T6). Kind of data set: GPR55 antagonists, SAR follow-up, counter-screen for GPR35 antagonist project, imaging, image-based (AID 2397). Type of data set: functional.
Another data set addresses T2, Protein skinhead-1 (Caenorhabditis elegans, UniProt P34707).
T2 sequence (P34707 whole entry): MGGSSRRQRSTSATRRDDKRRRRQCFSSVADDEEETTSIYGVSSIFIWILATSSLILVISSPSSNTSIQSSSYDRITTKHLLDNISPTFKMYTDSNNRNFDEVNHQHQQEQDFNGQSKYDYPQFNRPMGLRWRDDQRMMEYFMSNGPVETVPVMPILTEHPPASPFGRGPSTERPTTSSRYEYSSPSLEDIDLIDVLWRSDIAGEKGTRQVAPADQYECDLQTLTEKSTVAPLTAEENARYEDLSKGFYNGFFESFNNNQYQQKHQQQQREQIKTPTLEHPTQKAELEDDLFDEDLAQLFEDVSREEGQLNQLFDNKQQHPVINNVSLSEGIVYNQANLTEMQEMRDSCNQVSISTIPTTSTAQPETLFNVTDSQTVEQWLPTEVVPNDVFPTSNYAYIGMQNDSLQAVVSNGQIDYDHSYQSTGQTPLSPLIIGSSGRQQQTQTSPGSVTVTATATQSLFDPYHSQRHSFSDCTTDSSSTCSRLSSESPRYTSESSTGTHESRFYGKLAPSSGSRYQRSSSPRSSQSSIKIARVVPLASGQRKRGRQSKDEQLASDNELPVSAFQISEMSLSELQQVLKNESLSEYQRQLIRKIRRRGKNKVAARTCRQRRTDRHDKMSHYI
It is filed as functional.

For data set [3], the target named is T3, Replicative DNA helicase DnaB (Mycobacterium tuberculosis, UniProt P9WMR3).
T3 sequence (P9WMR3 whole entry): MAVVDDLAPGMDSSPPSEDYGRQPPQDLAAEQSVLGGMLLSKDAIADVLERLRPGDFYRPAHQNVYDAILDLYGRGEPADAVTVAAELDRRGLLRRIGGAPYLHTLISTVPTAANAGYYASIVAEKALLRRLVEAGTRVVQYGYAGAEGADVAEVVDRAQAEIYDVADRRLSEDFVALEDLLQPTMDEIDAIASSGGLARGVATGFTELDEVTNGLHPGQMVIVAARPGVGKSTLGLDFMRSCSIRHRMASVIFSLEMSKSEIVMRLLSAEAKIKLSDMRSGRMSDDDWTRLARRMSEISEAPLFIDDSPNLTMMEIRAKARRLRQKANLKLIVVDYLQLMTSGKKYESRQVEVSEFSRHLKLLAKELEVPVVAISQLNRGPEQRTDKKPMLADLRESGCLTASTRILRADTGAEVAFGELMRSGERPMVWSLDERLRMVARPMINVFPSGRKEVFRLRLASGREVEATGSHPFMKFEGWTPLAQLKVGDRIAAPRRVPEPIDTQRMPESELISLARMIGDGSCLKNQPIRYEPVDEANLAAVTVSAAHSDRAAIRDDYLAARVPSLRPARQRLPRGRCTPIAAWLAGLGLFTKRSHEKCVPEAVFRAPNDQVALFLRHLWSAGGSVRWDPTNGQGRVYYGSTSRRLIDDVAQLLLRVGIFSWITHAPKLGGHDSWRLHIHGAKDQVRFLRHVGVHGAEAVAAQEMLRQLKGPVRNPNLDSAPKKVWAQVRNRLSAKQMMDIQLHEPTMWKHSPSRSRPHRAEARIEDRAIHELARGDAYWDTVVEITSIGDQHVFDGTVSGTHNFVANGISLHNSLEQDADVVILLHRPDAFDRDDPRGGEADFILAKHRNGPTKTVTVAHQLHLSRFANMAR
Kind of data set: DnaB intein splicing inhibitors, dose response, biochemical, cell-free fluorescence (AID 449749). Type of data set: functional.

In another data set the target is T4, Protein Tat (Human immunodeficiency virus type 1 group M subtype B (isolate HXB2)(HIV-1), UniProt P04608).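 Also: tat binding to TAR RNA read out by fluorescence polarization.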
T4 sequence (P04608 whole entry): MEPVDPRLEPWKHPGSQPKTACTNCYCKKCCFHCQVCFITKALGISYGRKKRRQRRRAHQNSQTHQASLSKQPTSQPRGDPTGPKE
Type of data set: functional.

Data set [4] addresses T5, Tyrosine-protein phosphatase non-receptor type 7 (Homo sapiens, UniProt P35236).
T5 sequence (P35236 whole entry): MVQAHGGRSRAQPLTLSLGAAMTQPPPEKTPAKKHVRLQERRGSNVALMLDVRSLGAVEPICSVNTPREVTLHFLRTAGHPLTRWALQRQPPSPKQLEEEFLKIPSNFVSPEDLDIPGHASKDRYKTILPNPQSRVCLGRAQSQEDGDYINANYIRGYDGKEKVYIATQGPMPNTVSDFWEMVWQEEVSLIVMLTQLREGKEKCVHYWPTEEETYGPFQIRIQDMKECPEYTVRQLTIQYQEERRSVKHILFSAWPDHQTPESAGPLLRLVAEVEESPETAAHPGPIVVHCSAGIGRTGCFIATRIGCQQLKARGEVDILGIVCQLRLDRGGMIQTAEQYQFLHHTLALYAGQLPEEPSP
Type of data set: functional.

Data set [5] deals with Dual specificity protein phosphatase 3 (Homo sapiens, UniProt P51452). Nature of the data set: SAR VHR1 Fluorescent Assay for In Vitro dose response studies. [Related pubchem assays (depositor defined):AID1654, AID1661, AID1878, AID1992, AID2004, AID2070, AID2085]. It is filed as functional.
Data set [6] deals with T5, Tyrosine-protein phosphatase non-receptor type 7. Kind of data set: redox-dependent HePTP inhibition, mechanism study, biochemical, fluorescence (AID 2068). Type of data set: functional.
In data set [7] the target is T6, Dual specificity protein phosphatase 6 (Rattus norvegicus, UniProt Q64346).
T6 sequence (Q64346 whole entry): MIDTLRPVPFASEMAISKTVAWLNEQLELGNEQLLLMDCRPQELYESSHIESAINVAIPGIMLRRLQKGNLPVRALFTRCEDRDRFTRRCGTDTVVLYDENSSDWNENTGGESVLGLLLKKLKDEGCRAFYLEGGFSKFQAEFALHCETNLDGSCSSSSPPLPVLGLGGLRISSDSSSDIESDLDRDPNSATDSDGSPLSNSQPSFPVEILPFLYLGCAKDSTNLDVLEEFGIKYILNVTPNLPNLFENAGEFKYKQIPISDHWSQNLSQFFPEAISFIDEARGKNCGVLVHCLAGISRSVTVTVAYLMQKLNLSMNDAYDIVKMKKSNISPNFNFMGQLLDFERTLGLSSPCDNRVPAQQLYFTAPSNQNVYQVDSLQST

In data set [8] the target is T6, Dual specificity protein phosphatase 6. It is filed as functional.
For data set [9], the target named is Glyceraldehyde-3-phosphate dehydrogenase (Homo sapiens, UniProt P04406).
The target of data set [10] is T6, Dual specificity protein phosphatase 6. Kind of data set: MKP-3 phosphatase inhibitors, primary screen, biochemical, rat enzyme, in vitro (AID 425).
The target of data set [11] is Induced myeloid leukemia cell differentiation protein Mcl-1 (Homo sapiens, UniProt Q07820). Kind of data set: MCL1-BIM BH3 interaction inhibitors, dose response, biochemical, fluorescence polarization, BIM-BH3 peptide, 1536-well (AID 2217).
The target of another data set is Bcl-2-like protein 1 (Homo sapiens, UniProt Q07817). Kind of data set: BCL-XL inhibitors, dose response, selectivity assay for MCL1 inhibitor project, biochemical, fluorescence polarization, 1536-well (AID 2218).
The next data set concerns the target T7, Bcl-2-like protein 10 (Homo sapiens, UniProt Q9HD36).
T7 sequence (Q9HD36 whole entry): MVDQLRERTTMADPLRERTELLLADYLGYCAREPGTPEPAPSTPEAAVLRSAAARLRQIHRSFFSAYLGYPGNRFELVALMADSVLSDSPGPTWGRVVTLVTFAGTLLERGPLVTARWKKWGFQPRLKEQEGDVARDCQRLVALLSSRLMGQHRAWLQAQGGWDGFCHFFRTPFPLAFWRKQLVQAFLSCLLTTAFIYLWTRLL
Kind of data set: displacers of TR3 peptide from Bcl-B, primary screen, selectivity assay for Bfl-1 inhibitor project, biochemical, fluorescence polarization, FITC-TR3 peptide (AID 748).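 Also: fluorescence polarization from a fluorescein-labelled TR3 peptide binding purified Bcl-B.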

Data set [12] deals with T8, Cytochrome P450 3A4 (Homo sapiens, UniProt P08684).
Data set [13] has as its target T9, Cytochrome P450 2D6 (Homo sapiens, UniProt P10635).
A further data set has as its target Cytochrome P450 2C9 (Homo sapiens, UniProt P11712).
Data set [14] concerns the target UDP-galactopyranose mutase (Mycobacterium tuberculosis, UniProt P9WIQ1). Nature of the data set: Inhibitors of Mycobacterium tuberculosis UDP-galactopyranose mutase (UGM) enzyme Measured in Biochemical System Using Plate Reader - 2105-02_Inhibitor_Dose_CherryPick_Activity. [Related pubchem assays (depositor defined):AID504439].
The target of the next data set is Cytochrome P450 2C19 (Homo sapiens, UniProt P33261). Kind of data set: Cytochrome panel assay with activity outcomes. Panel member name: p450-cyp2c19 Compounds with AC50 equal or less than 10 uM are considered active. It is filed as functional. The following applies: read-out: AC50.
For a further data set, the target named is T10, Cytochrome P450 1A2 (Homo sapiens, UniProt P05177).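 Also: PubChem cytochrome P450 panel assay, CYP1A2 panel member.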
T10 sequence (P05177 whole entry): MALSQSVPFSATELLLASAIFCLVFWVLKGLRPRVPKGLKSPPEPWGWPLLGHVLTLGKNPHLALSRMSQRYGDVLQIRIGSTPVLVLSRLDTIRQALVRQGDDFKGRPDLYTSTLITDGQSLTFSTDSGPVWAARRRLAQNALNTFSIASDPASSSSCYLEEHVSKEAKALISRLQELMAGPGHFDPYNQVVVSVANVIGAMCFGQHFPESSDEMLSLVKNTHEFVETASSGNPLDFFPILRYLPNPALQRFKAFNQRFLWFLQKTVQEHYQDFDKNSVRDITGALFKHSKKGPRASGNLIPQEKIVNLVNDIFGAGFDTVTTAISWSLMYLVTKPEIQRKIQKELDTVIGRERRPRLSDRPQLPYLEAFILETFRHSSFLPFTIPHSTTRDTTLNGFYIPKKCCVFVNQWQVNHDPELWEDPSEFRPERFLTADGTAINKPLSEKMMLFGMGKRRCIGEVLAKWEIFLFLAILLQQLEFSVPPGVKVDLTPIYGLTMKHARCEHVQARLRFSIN

For data set [15], the target named is T8, Cytochrome P450 3A4. This is another data set of the same source.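 Also: CYP3A4 tested as one member of a cytochrome P450 panel screen.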
Data set [16] concerns the target T9, Cytochrome P450 2D6. The source holds these as a separate data set.
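For CC50 in this document: cells exposed to compound for 72 hours before luminescence readout.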

T8 sequence (P08684 whole entry): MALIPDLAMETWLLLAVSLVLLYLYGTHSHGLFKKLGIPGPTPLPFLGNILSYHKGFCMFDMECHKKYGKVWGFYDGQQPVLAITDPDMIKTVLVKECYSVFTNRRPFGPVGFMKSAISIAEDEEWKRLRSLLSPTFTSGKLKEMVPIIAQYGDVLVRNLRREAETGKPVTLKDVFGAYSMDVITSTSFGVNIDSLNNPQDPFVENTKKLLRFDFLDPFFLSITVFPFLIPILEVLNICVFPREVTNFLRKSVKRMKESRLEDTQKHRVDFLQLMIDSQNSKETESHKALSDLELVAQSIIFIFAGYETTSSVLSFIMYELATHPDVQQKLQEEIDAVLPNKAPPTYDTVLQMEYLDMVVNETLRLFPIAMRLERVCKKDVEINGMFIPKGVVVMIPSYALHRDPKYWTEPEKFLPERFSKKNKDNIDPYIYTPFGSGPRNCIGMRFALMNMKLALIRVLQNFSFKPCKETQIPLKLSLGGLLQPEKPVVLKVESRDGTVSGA
T9 sequence (P10635 whole entry): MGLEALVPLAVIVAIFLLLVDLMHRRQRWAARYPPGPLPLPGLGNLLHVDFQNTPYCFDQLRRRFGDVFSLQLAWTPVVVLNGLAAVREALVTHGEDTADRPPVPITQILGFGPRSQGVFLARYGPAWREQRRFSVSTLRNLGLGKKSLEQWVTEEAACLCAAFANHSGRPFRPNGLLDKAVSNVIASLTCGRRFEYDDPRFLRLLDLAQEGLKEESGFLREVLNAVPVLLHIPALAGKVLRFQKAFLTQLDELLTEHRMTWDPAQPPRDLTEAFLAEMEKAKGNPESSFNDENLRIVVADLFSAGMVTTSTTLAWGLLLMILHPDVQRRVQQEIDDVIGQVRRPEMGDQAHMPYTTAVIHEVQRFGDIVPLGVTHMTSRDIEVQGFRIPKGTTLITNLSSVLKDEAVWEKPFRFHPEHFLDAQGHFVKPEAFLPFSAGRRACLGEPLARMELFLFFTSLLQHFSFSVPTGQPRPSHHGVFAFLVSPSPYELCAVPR
Sequence of Cytochrome P450 2C9 (P11712 whole entry): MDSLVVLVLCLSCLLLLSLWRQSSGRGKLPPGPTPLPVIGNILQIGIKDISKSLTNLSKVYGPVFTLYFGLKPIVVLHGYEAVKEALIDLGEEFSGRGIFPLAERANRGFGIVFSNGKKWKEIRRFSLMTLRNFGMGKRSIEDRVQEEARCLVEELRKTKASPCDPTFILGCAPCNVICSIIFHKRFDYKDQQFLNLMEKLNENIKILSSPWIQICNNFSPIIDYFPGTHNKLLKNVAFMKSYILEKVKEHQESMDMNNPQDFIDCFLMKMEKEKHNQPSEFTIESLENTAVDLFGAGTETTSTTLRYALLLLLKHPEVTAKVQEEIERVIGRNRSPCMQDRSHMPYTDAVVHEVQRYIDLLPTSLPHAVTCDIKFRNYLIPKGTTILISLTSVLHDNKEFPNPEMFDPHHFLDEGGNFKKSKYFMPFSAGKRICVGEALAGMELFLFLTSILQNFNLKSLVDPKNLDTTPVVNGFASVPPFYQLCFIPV
Sequence of UDP-galactopyranose mutase (P9WIQ1 whole entry): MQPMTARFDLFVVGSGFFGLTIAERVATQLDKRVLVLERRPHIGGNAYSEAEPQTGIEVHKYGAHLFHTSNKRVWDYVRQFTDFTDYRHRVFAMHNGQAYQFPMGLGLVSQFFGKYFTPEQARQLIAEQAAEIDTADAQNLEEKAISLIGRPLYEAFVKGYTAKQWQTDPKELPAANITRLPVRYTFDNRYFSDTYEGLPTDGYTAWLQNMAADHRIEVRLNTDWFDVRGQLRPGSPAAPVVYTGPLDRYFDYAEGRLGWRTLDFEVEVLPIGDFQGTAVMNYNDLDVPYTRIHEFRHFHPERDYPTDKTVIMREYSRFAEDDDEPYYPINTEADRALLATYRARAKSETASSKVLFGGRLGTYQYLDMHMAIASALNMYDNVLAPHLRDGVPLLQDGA
Sequence of G-protein coupled receptor 55 (Q9Y2T6 whole entry): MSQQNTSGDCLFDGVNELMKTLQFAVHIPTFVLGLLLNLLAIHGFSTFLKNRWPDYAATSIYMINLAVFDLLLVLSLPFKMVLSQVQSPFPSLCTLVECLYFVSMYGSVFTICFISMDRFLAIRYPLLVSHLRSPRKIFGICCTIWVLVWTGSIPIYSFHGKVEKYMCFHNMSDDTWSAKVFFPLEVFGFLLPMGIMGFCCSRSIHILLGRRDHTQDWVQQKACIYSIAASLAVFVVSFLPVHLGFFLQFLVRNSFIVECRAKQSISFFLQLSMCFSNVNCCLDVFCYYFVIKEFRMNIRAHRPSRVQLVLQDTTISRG
Sequence of Dual specificity protein phosphatase 3 (P51452 whole entry): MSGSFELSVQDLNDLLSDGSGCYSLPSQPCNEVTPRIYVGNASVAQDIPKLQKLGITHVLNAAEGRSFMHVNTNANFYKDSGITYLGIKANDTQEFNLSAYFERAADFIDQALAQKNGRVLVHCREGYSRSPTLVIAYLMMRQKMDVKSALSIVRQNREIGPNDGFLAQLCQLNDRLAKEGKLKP
Sequence of Glyceraldehyde-3-phosphate dehydrogenase (P04406 whole entry): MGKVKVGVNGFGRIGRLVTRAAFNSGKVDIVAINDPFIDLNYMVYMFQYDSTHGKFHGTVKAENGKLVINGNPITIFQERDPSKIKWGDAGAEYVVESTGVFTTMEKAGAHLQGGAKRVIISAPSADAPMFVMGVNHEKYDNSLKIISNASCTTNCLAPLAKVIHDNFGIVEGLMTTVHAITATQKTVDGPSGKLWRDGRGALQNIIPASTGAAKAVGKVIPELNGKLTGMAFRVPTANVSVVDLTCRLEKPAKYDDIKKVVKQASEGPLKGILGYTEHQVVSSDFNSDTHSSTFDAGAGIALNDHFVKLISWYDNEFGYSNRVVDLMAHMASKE
Sequence of Bcl-2-like protein 1 (Q07817 whole entry): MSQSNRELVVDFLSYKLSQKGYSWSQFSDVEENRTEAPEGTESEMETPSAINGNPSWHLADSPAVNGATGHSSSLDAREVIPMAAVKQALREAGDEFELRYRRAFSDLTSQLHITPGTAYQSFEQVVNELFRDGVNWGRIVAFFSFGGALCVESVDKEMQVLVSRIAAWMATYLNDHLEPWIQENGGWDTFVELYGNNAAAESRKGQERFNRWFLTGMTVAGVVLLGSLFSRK
Sequence of Induced myeloid leukemia cell differentiation protein Mcl-1 (Q07820 whole entry): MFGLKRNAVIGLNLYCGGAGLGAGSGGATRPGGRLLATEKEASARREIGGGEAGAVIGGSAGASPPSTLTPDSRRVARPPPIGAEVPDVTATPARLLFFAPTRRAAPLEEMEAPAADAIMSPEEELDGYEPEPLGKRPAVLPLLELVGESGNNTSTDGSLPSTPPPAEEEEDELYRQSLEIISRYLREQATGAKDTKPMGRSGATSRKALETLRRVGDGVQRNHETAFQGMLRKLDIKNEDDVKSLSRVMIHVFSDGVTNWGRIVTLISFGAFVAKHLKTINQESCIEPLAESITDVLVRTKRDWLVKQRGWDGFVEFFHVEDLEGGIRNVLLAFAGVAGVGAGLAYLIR
Sequence of Cytochrome P450 2C19 (P33261 whole entry): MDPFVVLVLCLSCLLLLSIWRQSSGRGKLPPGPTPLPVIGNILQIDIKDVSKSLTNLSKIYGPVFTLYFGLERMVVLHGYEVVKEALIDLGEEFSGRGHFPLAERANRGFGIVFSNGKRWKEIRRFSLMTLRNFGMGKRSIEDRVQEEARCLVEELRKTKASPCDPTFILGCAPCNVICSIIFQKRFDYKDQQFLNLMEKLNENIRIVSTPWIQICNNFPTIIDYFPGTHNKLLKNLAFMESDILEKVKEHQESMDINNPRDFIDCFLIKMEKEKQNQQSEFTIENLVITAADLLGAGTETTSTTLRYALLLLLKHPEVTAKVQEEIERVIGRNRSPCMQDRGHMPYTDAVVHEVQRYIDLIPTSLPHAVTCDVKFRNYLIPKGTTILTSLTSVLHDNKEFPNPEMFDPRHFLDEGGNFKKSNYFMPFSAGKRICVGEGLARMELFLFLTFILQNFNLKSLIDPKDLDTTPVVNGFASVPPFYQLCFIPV

In the case of `O=C(CCCN1C(=O)/C(=C/c2cccs2)SC1=S)Nc1ccc(O)cc1`, the 50% cytotoxic concentration (CC50) in data set [1] is 28.5 µM (active). For the same compound, the EC50 at Protein RecA is 3.25 µM (active). In addition, the IC50 is 30.5 µM (inactive) in data set [2] and > 100 µM (inactive) on Protein skinhead-1. Also, the AC50 in data set [3] is 2.11 µM (active).

For the compound `c1ccc(CSc2nnc(-c3ccco3)c(-c3ccco3)n2)cc1`, the IC50 on Protein Tat is 4.04 µM (inconclusive); in data set [4], 13.3 µM (active); in data set [5] it was 7.06 µM (active); in [6], 284 nM (active); in [7], 23.9 µM (active); in [8], 24.2 µM (active). Further, the IC50 is > 100 µM (not active) in [9]; > 10 µM (not active) in data set [10]; 2.92 µM (active) in data set [11]; > 109 µM (not active) on Bcl-2-like protein 1; 5.55 µM (active) on Bcl-2-like protein 10.

For the compound `COC(=O)C1Cc2c([nH]c3ccccc23)CN1` (centres undefined), the AC50 entry at Cytochrome P450 3A4 [12] is “inconclusive”; at Cytochrome P450 2D6 [13], 14.1 µM (inconclusive); on Cytochrome P450 2C9 it was 25.1 µM (inconclusive).

As to `COCCNC(=O)Cn1cc(C=C2C(=O)NC(=O)NC2=O)c2ccccc21`, the AC50 in [14] was 46.3 µM (active).

Consider `CC(C)(C)c1ccc(-c2nnc(SCC(=O)c3ccc4c(c3)OCCO4)o2)cc1`, for which the AC50 at Cytochrome P450 2C19 was 3.98 µM (inconclusive); at Cytochrome P450 1A2, 2.24 µM (inconclusive); on Cytochrome P450 3A4 [15] it was 39.8 µM (inconclusive); on Cytochrome P450 2D6 [16] it was “inconclusive”.
